Reference: the supplement of paper PMC11061612

Key:
Experiment in all cases: combination Emax (second highest fraction inhibited in the dose matrix, 72 h); higher = more inhibition; extreme values may be limits of the assay
[1] = test system: CAL-148 (Breast Carcinoma)
Procedure, shortened: (§1)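 Cell lines grown in DMEM/F12 or RPMI with 10% FBS were plated in 1536-well plates and held 24 hours at 37°C, 5% CO2 before 72 hours of exposure to two-drug dose matrices, with DMSO typically at 0.2%. CellTiter-Glo 2.0 luminescence gave viability, which was converted to inhibition. Vehicle wells were set to 0 and blank wells to 1. Combination Emax is the second-highest inhibition in the matrix, and Bliss excess is the observed combination effect minus the expected EA + EB − EA·EB, where EA and EB are the single-agent effects.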

[2] = test system: CaR-1 (Colorectal Carcinoma)
Procedure, shortened: as §1

[3] = test system: DoTc2-4510 (Cervical Carcinoma)
Procedure, shortened: as §1

[4] = test system: HCC1806 (Breast Carcinoma)
Procedure, shortened: as §1

KELLY (Neuroblastoma) = test system: KELLY (Neuroblastoma)
Procedure, shortened: as §1

[5] = test system: KYSE-520 (Esophageal Squamous Cell Carcinoma)
Procedure, shortened: as §1

[6] = test system: LB831-BLC (Bladder Carcinoma)
Procedure, shortened: as §1

[7] = test system: LNCaP-Clone-FGC (Prostate Carcinoma)
Procedure, shortened: as §1

[8] = test system: NCI-H82 (Small Cell Lung Carcinoma)
Procedure, shortened: as §1

[9] = test system: OVCA420 (Ovarian Carcinoma)
Procedure, shortened: as §1

[10] = test system: RC-K8 (B-Cell Non-Hodgkin's Lymphoma)
Procedure, shortened: as §1

[11] = test system: TE-9 (Esophageal Squamous Cell Carcinoma)
Procedure, shortened: as §1

SMILES | combination Emax [1] | combination Emax [2] | combination Emax [3] | combination Emax [4] | combination Emax (KELLY (Neuroblastoma)) | combination Emax [5] | combination Emax [6] | combination Emax [7] | combination Emax [8] | combination Emax [9] | combination Emax [10] | combination Emax [11]
CC(=O)c1c(C)c2cnc(Nc3ccc(N4CCNCC4)cn3)nc2n(C2CCCC2)c1=O [Palbociclib] + Cn1cnc2c(F)c(Nc3ccc(Br)cc3Cl)c(C(=O)NOCCO)cc21 [Selumetinib] (first compound max 10 µM, 7x7, partner max 10 µM) | 0.303 | 0.307 | 0.117 | 0.414 | 0.626 | 0.457 | 0.223 | 0.451 | 0.627 | 0.51 | 0.459 | 0.201
COc1cccc(OCCCN)c1-c1cc(Nc2cnc(C#N)cn2)n[nH]1 [Prexasertib] + CCc1c2c(nc3ccc(O)cc13)-c1cc3c(c(=O)n1C2)COC(=O)[C@]3(O)CC [SN-38] (first compound max 1 µM, 7x7, partner max 0.3 µM) | 0.935 | 0.799 | 0.964 | 0.996 | 1 | 0.856 | 0.921 | 0.766 | 1 | 0.75 | 1 | 0.8
C[C@@H](c1ccc2nccn2c1)n1nnc2ncc(-c3cnn(C)c3)nc21 [Savolitinib] + CC1(C)CCC(CN2CCN(c3ccc(C(=O)NS(=O)(=O)c4ccc(NCC5CCOCC5)c([N+](=O)[O-])c4)c(Oc4cnc5[nH]ccc5c4)c3)CC2)=C(c2ccc(Cl)cc2)C1 [Venetoclax] (first compound max 1 µM, 7x7, partner max 1 µM) | 0.143 | 0.171 | 0.182 | 0.142 | 0.357 | 0.149 | 0.179 | 0.0523 | 0.225 | 0.0542 | 0.129 | 0.152
C[C@@H](c1ccc2nccn2c1)n1nnc2ncc(-c3cnn(C)c3)nc21 [Savolitinib] + Cc1c2c(nn1C)CSCc1cc(n(C)n1)CSc1cc(c3ccccc3c1)OCCCc1c(C(=O)O)n(C)c3c-2c(Cl)ccc13 [AZD5991] (first compound max 1 µM, 7x7, partner max 1 µM) | 0.275 | 0.154 | 0.205 | 0.2 | 0.805 | 0.189 | 0.232 | 0.163 | 0.875 | 0.213 | 0.113 | 0.239
Cn1cnc2c(F)c(Nc3ccc(Br)cc3Cl)c(C(=O)NOCCO)cc21 [Selumetinib] + C=CCn1c(=O)c2cnc(Nc3ccc(N4CCN(C)CC4)cc3)nc2n1-c1cccc(C(C)(C)O)n1 [AZD1775] (first compound max 10 µM, partner max 1 µM) | 0.849 | 0.288 | 0.251 | 0.919 | 1 | 0.595 | 0.406 | 0.625 | 0.855 | 0.508 | 0.72 | 0.231
Cn1cnc2c(F)c(Nc3ccc(Br)cc3Cl)c(C(=O)NOCCO)cc21 [Selumetinib] + CC(C)n1c(=O)n(C)c2cnc3cc(F)c(-c4ccc(OCCCN5CCCCC5)nc4)cc3c21 [AZD1390] (first compound max 10 µM, 7x7, partner max 0.3 µM) | 0.158 | 0.188 | 0.144 | 0.299 | 0.22 | 0.382 | 0.214 | 0.0956 | 0.177 | 0.436 | 0.209 | 0.13
Cn1cnc2c(F)c(Nc3ccc(Br)cc3Cl)c(C(=O)NOCCO)cc21 [Selumetinib] + CCN(CCO)CCCOc1ccc2c(Nc3cc(CC(=O)Nc4cccc(F)c4)[nH]n3)ncnc2c1 [AZD2811] (first compound max 10 µM, 7x7, partner max 1 µM) | 0.927 | 0.406 | 0.224 | 0.321 | 0.645 | 0.428 | 0.226 | 0.284 | 0.442 | 0.493 | 0.443 | 0.175
Cn1cnc2c(F)c(Nc3ccc(Br)cc3Cl)c(C(=O)NOCCO)cc21 [Selumetinib] + C[C@@H]1COCCN1C2=NC(=NC(=C2)C3(CC3)[S@](=N)(=O)C)C4=C5C=CNC5=NC=C4 [AZD6738] (first compound max 10 µM, 7x7, partner max 10 µM) | 0.825 | 0.395 | 0.392 | 0.938 | 0.952 | 0.534 | 0.278 | 0.673 | 0.756 | 0.562 | 0.87 | 0.147
CC(=O)Nc1cccc(-n2c(=O)n(C3CC3)c(=O)c3c(Nc4ccc(I)cc4F)n(C)c(=O)c(C)c32)c1 [Trametinib] + Cc1nc(-c2cn3c(n2)-c2ccc(-c4cnn(C(C)(C)C(N)=O)c4)cc2OCC3)n(C(C)C)n1 [Taselisib] (first compound max 1 µM, 7x7, partner max 10 µM) | 0.986 | 0.776 | 0.841 | 0.798 | 0.47 | 0.846 | 0.77 | 0.813 | 0.243 | 0.917 | 0.512 | 0.824
CC1(C)CCC(CN2CCN(c3ccc(C(=O)NS(=O)(=O)c4ccc(NCC5CCOCC5)c([N+](=O)[O-])c4)c(Oc4cnc5[nH]ccc5c4)c3)CC2)=C(c2ccc(Cl)cc2)C1 [Venetoclax] + C1CN(CCC1(C(=O)N[C@@H](CCO)C2=CC=C(C=C2)Cl)N)C3=NC=NC4=C3C=CN4 [Capivasertib] (first compound max 1 µM, 7x7, partner max 3 µM) | 0.966 | 0.264 | 0.245 | 0.231 | 0.998 | 0.467 | 0.334 | 0.916 | 0.3 | 0.146 | 0.333 | 0.192
CC1(C)CCC(CN2CCN(c3ccc(C(=O)NS(=O)(=O)c4ccc(NCC5CCOCC5)c([N+](=O)[O-])c4)c(Oc4cnc5[nH]ccc5c4)c3)CC2)=C(c2ccc(Cl)cc2)C1 [Venetoclax] + C=CCn1c(=O)c2cnc(Nc3ccc(N4CCN(C)CC4)cc3)nc2n1-c1cccc(C(C)(C)O)n1 [AZD1775] (first compound max 1 µM, partner max 1 µM) | 0.952 | 0.246 | 0.633 | 0.912 | 1 | 0.595 | 0.677 | 0.689 | 0.917 | 0.384 | 0.815 | 0.691
CC1(C)CCC(CN2CCN(c3ccc(C(=O)NS(=O)(=O)c4ccc(NCC5CCOCC5)c([N+](=O)[O-])c4)c(Oc4cnc5[nH]ccc5c4)c3)CC2)=C(c2ccc(Cl)cc2)C1 [Venetoclax] + CCN(CCO)CCCOc1ccc2c(Nc3cc(CC(=O)Nc4cccc(F)c4)[nH]n3)ncnc2c1 [AZD2811] (first compound max 1 µM, 7x7, partner max 1 µM) | 0.933 | 0.282 | 0.235 | 0.212 | 0.985 | 0.304 | 0.188 | 0.272 | 0.457 | 0.188 | 0.423 | 0.154
CC1(C)CCC(CN2CCN(c3ccc(C(=O)NS(=O)(=O)c4ccc(NCC5CCOCC5)c([N+](=O)[O-])c4)c(Oc4cnc5[nH]ccc5c4)c3)CC2)=C(c2ccc(Cl)cc2)C1 [Venetoclax] + CN(C)CCCOc1ccc(-c2ccc3ncc4c(c3c2)n(C2CCOCC2)c(=O)n4C)cn1 [AZD0156] (first compound max 1 µM, 7x7, partner max 1 µM) | 0.716 | 0.145 | 0.268 | 0.139 | 0.976 | 0.181 | 0.228 | 0.35 | 0.343 | 0.178 | 0.316 | 0.141
CC1(C)CCC(CN2CCN(c3ccc(C(=O)NS(=O)(=O)c4ccc(NCC5CCOCC5)c([N+](=O)[O-])c4)c(Oc4cnc5[nH]ccc5c4)c3)CC2)=C(c2ccc(Cl)cc2)C1 [Venetoclax] + COc1cc(Nc2ncc3c(n2)-c2ccc(Cl)cc2C(c2c(F)cccc2OC)=NC3)ccc1C(=O)O [Alisertib] (first compound max 1 µM, 7x7, partner max 10 µM) | 0.74 | 0.401 | 0.421 | 0.278 | 0.998 | 0.493 | 0.456 | 0.298 | 0.73 | 0.326 | 0.585 | 0.369
CC1(C)CCC(CN2CCN(c3ccc(C(=O)NS(=O)(=O)c4ccc(NCC5CCOCC5)c([N+](=O)[O-])c4)c(Oc4cnc5[nH]ccc5c4)c3)CC2)=C(c2ccc(Cl)cc2)C1 [Venetoclax] + C[C@@H]1COCCN1C2=NC(=NC(=C2)C3(CC3)[S@](=N)(=O)C)C4=C5C=CNC5=NC=C4 [AZD6738] (first compound max 1 µM, 7x7, partner max 10 µM) | 0.888 | 0.484 | 0.603 | 0.938 | 0.998 | 0.575 | 0.466 | 0.684 | 0.86 | 0.493 | 0.837 | 0.274
CC1(C)CCC(CN2CCN(c3ccc(C(=O)NS(=O)(=O)c4ccc(NCC5CCOCC5)c([N+](=O)[O-])c4)c(Oc4cnc5[nH]ccc5c4)c3)CC2)=C(c2ccc(Cl)cc2)C1 [Venetoclax] + C[C@@H](Nc1cc(F)cc(F)c1)c1cc(C(=O)N(C)C)cc2c(=O)cc(N3CCOCC3)oc12 [AZD8186] (first compound max 1 µM, 7x7, partner max 3 µM) | 0.263 | 0.109 | 0.197 | 0.0952 | 1 | 0.247 | 0.182 | 0.809 | 0.141 | 0.165 | 0.281 | 0.129
CC1(C)CCC(CN2CCN(c3ccc(C(=O)NS(=O)(=O)c4ccc(NCC5CCOCC5)c([N+](=O)[O-])c4)c(Oc4cnc5[nH]ccc5c4)c3)CC2)=C(c2ccc(Cl)cc2)C1 [Venetoclax] + Cc1cc2ncnn2cc1Nc1ncc2c(n1)n(C1CCOCC1)c(=O)n2C [AZD7648] (first compound max 1 µM, 7x7, partner max 10 µM) | 0.447 | 0.175 | 0.23 | 0.172 | 0.989 | 0.34 | 0.241 | 0.423 | 0.221 | 0.223 | 0.496 | 0.154
